{"source": "patent US12257237B2", "about": "(priority 2017, dated 2025)", "system": "DD013 dedifferentiated liposarcoma", "assay": "Antitumour activity in DD013 dedifferentiated liposarcoma xenograft model", "type": "in vivo, Athymic nude mice", "procedure": "Experiments were performed with female Athymic nude mice, 9-10 weeks old obtained from Harlan Laboratories (Udine, Italy). They were maintained under Specific Pathogen Free conditions with constant temperature and humidity, according to the institutional guidelines.\nTumour growth mice was monitored two/three times a week (depending on tumour growth rate, to avoid unnecessary stress to the animals) by Vernier caliper. Mice were sacrificed when tumour reached a mean weight of 2±0.5 gr. The antitumour activity will be expressed as T/C %, where T and C were the mean tumour weight of treated and control groups, respectively. Mice were monitored daily and weighted at least two times a week. Tolerability was evaluated on the basis of body weight loss (BWL) and clinical observation.\nStatistical analysis was performed with GraphPad Prism version 6.01 software (GraphPad software, Inc., La Jolla, CA, USA). ANOVA test was performed to evaluate if there were statistically significant differences between treated and control groups.\nBriefly, xenografts were obtained by transplanting 3-4 mm tumour fragments s.c. in the flanks of mice. The growing tumour masses were measured with the aid of a Vernier caliper, and the tumour weights (TW, 1 mm^3=1 mg) were calculated by the formula: length×(width) 2/2. When tumour load achieved about 200-400 mg, mice were randomized into the experimental groups.", "note": "Where “and” joins values, the source holds several entries; their conditions need not be identical. Identical values can stand only once."}
{"compound": "Cn1c(CCCCCCC(=O)NO)nc2cc(N(CCCl)CCCl)ccc21", "note": "[EDO-S101, 7-(5-(bis(2-chloroethyl)amino)-1-methyl-1H-benzo[d]imidazol-2-yl)-N-hydroxyheptanamide]", "values": [{"measurement": "DD0113 tumour weight, Mean", "setting": "EDO60: EDO-S101 60 mg/kg q7dx3, day 87 from inoculum", "result": 393.6, "unit": "mg"}, {"measurement": "DD0113 tumour weight, Mean", "setting": "EDO60: EDO-S101 60 mg/kg q7dx3, day 90 from inoculum", "result": 436.6, "unit": "mg"}, {"measurement": "DD0113 tumour weight, individual mouse", "setting": "EDO60: EDO-S101 60 mg/kg q7dx3, day 90 from inoculum, 60 mg/kg", "result": "118.4 mg and 56.3 mg and 626.5 mg and 82.7 mg and 234.7 mg and 492.6 mg and 49.6 mg"}, {"measurement": "DD0113 tumour weight, Mean", "setting": "EDO60: EDO-S101 60 mg/kg q7dx3, day 94 from inoculum", "result": 476.6, "unit": "mg"}, {"measurement": "DD0113 tumour weight, individual mouse", "setting": "EDO60: EDO-S101 60 mg/kg q7dx3, day 94 from inoculum, 60 mg/kg", "result": "135.6 mg and 73.5 mg and 693.0 mg and 95.1 mg and 279.8 mg and 598.8 mg and 43.4 mg"}, {"measurement": "DD0113 tumour weight, Mean", "setting": "EDO60: EDO-S101 60 mg/kg q7dx3, day 98 from inoculum", "result": 451.5, "unit": "mg"}, {"measurement": "DD0113 tumour weight, individual mouse", "setting": "EDO60: EDO-S101 60 mg/kg q7dx3, day 98 from inoculum, 60 mg/kg", "result": "113.6 mg and 57.9 mg and 655.0 mg and 70.1 mg and 225.1 mg and 584.9 mg and 30.7 mg"}, {"measurement": "DD0113 tumour weight, Mean", "setting": "EDO60: EDO-S101 60 mg/kg q7dx3, day 100 from inoculum", "result": 518.4, "unit": "mg"}, {"measurement": "DD0113 tumour weight, individual mouse", "setting": "EDO60: EDO-S101 60 mg/kg q7dx3, day 100 from inoculum, 60 mg/kg", "result": "122.1 mg and 86.5 mg and 751.1 mg and 87.0 mg and 297.7 mg and 718.0 mg and 40.7 mg"}, {"measurement": "DD0113 tumour weight, Mean", "setting": "EDO60: EDO-S101 60 mg/kg q7dx3, day 103 from inoculum", "result": 503.0, "unit": "mg"}, {"measurement": "DD0113 tumour weight, individual mouse", "setting": "EDO60: EDO-S101 60 mg/kg q7dx3, day 103 from inoculum, 60 mg/kg", "result": "70.5 mg and 747.9 mg and 89.6 mg and 231.0 mg and 670.9 mg and 37.5 mg"}, {"measurement": "DD0113 tumour weight, Mean", "setting": "EDO60: EDO-S101 60 mg/kg q7dx3, day 111 from inoculum", "result": 502.0, "unit": "mg"}, {"measurement": "DD0113 tumour weight, individual mouse", "setting": "EDO60: EDO-S101 60 mg/kg q7dx3, day 111 from inoculum, 60 mg/kg", "result": "90.0 mg and 45.6 mg and 813.1 mg and 62.2 mg and 245.9 mg and 686.9 mg and 33.9 mg"}, {"measurement": "DD0113 tumour weight, Mean", "setting": "EDO60: EDO-S101 60 mg/kg q7dx3, day 114 from inoculum", "result": 624.6, "unit": "mg"}, {"measurement": "DD0113 tumour weight, individual mouse", "setting": "EDO60: EDO-S101 60 mg/kg q7dx3, day 114 from inoculum, 60 mg/kg", "result": "131.7 mg and 81.4 mg and 999.4 mg and 119.1 mg and 284.3 mg and 935.9 mg and 61.0 mg"}, {"measurement": "DD0113 tumour weight, Mean", "setting": "EDO60: EDO-S101 60 mg/kg q7dx3, day 118 from inoculum", "result": 747.2, "unit": "mg"}, {"measurement": "DD0113 tumour weight, individual mouse", "setting": "EDO60: EDO-S101 60 mg/kg q7dx3, day 118 from inoculum, 60 mg/kg", "result": "157.8 mg and 79.8 mg and 1342.5 mg and 134.3 mg and 364.6 mg and 1024.5 mg and 64.1 mg"}, {"measurement": "DD0113 tumour weight, Mean", "setting": "EDO80: EDO-S101 80 mg/kg single dose, day 23 from inoculum", "result": 198.0, "unit": "mg"}, {"measurement": "DD0113 tumour weight, individual mouse", "setting": "EDO80: EDO-S101 80 mg/kg single dose, day 23 from inoculum, 80 mg/kg", "result": "361.8 mg and 272.9 mg and 241.0 mg and 225.2 mg and 191.6 mg"}, {"measurement": "DD0113 tumour weight, Mean", "setting": "EDO80: EDO-S101 80 mg/kg single dose, day 26 from inoculum", "result": 253.1, "unit": "mg"}, {"measurement": "DD0113 tumour weight, individual mouse", "setting": "EDO80: EDO-S101 80 mg/kg single dose, day 26 from inoculum, 80 mg/kg", "result": "410.2 mg and 433.7 mg and 275.2 mg and 338.5 mg and 196.8 mg"}, {"measurement": "DD0113 tumour weight, Mean", "setting": "EDO80: EDO-S101 80 mg/kg single dose, day 29 from inoculum", "result": 251.2, "unit": "mg"}, {"measurement": "DD0113 tumour weight, individual mouse", "setting": "EDO80: EDO-S101 80 mg/kg single dose, day 29 from inoculum, 80 mg/kg", "result": "399.5 mg and 447.9 mg and 310.3 mg and 335.3 mg and 179.1 mg"}, {"measurement": "DD0113 tumour weight, Mean", "setting": "EDO80: EDO-S101 80 mg/kg single dose, day 33 from inoculum", "result": 251.0, "unit": "mg"}, {"measurement": "DD0113 tumour weight, individual mouse", "setting": "EDO80: EDO-S101 80 mg/kg single dose, day 33 from inoculum, 80 mg/kg", "result": "456.2 mg and 408.9 mg and 293.6 mg and 271.4 mg and 220.9 mg"}, {"measurement": "DD0113 tumour weight, Mean", "setting": "EDO80: EDO-S101 80 mg/kg single dose, day 36 from inoculum", "result": 256.4, "unit": "mg"}, {"measurement": "DD0113 tumour weight, individual mouse", "setting": "EDO80: EDO-S101 80 mg/kg single dose, day 36 from inoculum, 80 mg/kg", "result": "466.8 mg and 431.6 mg and 284.2 mg and 280.3 mg and 194.9 mg"}, {"measurement": "DD0113 tumour weight, Mean", "setting": "EDO80: EDO-S101 80 mg/kg single dose, day 40 from inoculum", "result": 283.7, "unit": "mg"}, {"measurement": "DD0113 tumour weight, individual mouse", "setting": "EDO80: EDO-S101 80 mg/kg single dose, day 40 from inoculum, 80 mg/kg", "result": "569.1 mg and 476.7 mg and 364.0 mg and 279.7 mg and 216.2 mg"}, {"measurement": "DD0113 tumour weight, Mean", "setting": "EDO80: EDO-S101 80 mg/kg single dose, day 43 from inoculum", "result": 284.8, "unit": "mg"}, {"measurement": "DD0113 tumour weight, individual mouse", "setting": "EDO80: EDO-S101 80 mg/kg single dose, day 43 from inoculum, 80 mg/kg", "result": "500.6 mg and 547.3 mg and 355.5 mg and 255.8 mg and 227.9 mg"}, {"measurement": "DD0113 tumour weight, Mean", "setting": "EDO80: EDO-S101 80 mg/kg single dose, day 47 from inoculum", "result": 326.3, "unit": "mg"}, {"measurement": "DD0113 tumour weight, individual mouse", "setting": "EDO80: EDO-S101 80 mg/kg single dose, day 47 from inoculum, 80 mg/kg", "result": "626.2 mg and 643.5 mg and 338.2 mg and 321.9 mg and 275.0 mg"}, {"measurement": "DD0113 tumour weight, Mean", "setting": "EDO80: EDO-S101 80 mg/kg single dose, day 50 from inoculum", "result": 384.4, "unit": "mg"}, {"measurement": "DD0113 tumour weight, individual mouse", "setting": "EDO80: EDO-S101 80 mg/kg single dose, day 50 from inoculum, 80 mg/kg", "result": "686.0 mg and 716.7 mg and 447.7 mg and 447.8 mg and 297.1 mg"}, {"measurement": "DD0113 tumour weight, Mean", "setting": "EDO80: EDO-S101 80 mg/kg single dose, day 54 from inoculum", "result": 418.9, "unit": "mg"}, {"measurement": "DD0113 tumour weight, Mean", "setting": "EDO80: EDO-S101 80 mg/kg single dose, day 58 from inoculum", "result": 511.4, "unit": "mg"}, {"measurement": "DD0113 tumour weight, Mean", "setting": "EDO80: EDO-S101 80 mg/kg single dose, day 62 from inoculum", "result": 549.2, "unit": "mg"}, {"measurement": "DD0113 tumour weight, Mean", "setting": "EDO80: EDO-S101 80 mg/kg single dose, day 65 from inoculum", "result": 540.3, "unit": "mg"}, {"measurement": "DD0113 tumour weight, Mean", "setting": "EDO80: EDO-S101 80 mg/kg single dose, day 69 from inoculum", "result": 531.6, "unit": "mg"}, {"measurement": "DD0113 tumour weight, Mean", "setting": "EDO80: EDO-S101 80 mg/kg single dose, day 72 from inoculum", "result": 581.5, "unit": "mg"}, {"measurement": "DD0113 tumour weight, Mean", "setting": "EDO80: EDO-S101 80 mg/kg single dose, day 75 from inoculum", "result": 560.9, "unit": "mg"}, {"measurement": "DD0113 tumour weight, Mean", "setting": "EDO80: EDO-S101 80 mg/kg single dose, day 79 from inoculum", "result": 564.1, "unit": "mg"}, {"measurement": "DD0113 tumour weight, Mean", "setting": "EDO80: EDO-S101 80 mg/kg single dose, day 83 from inoculum", "result": 475.0, "unit": "mg"}, {"measurement": "DD0113 tumour weight, Mean", "setting": "EDO80: EDO-S101 80 mg/kg single dose, day 87 from inoculum", "result": 594.1, "unit": "mg"}, {"measurement": "DD0113 tumour weight, Mean", "setting": "EDO80: EDO-S101 80 mg/kg single dose, day 90 from inoculum", "result": 638.8, "unit": "mg"}, {"measurement": "DD0113 tumour weight, Mean", "setting": "EDO80: EDO-S101 80 mg/kg single dose, day 94 from inoculum", "result": 826.0, "unit": "mg"}, {"measurement": "DD0113 tumour weight, Mean", "setting": "EDO80: EDO-S101 80 mg/kg single dose, day 98 from inoculum", "result": 927.2, "unit": "mg"}, {"measurement": "DD0113 tumour weight, Mean", "setting": "EDO80: EDO-S101 80 mg/kg single dose, day 100 from inoculum", "result": 1209.8, "unit": "mg"}, {"measurement": "DD0113 tumour weight, Mean", "setting": "EDO80: EDO-S101 80 mg/kg single dose, day 103 from inoculum", "result": 1301.2, "unit": "mg"}]}
